Results reported in patent US20230416329A1, “A PEPTIDE WITH DISULFIDE BONDS AND INHIBITORY ACTIVITY AGAINST SERINE PROTEASES, DERIVED HYBRID PEPTIDES THEREOF, AND USES THEREOF” (INSTITUTE OF MATERIA MEDICA , CHINESE ACADEMY OF MEDICAL …, priority 2020, published 2023).
Where two headings read alike, the source gives them in different places.

Columns and labels:
DPP-IV = DPP-IV (Homo sapiens, UniProt P27487); experiment: Tolerance of GLP-1 and its analogues to DPP-IV (RP-HPLC remaining peak area); assay type: in vitro ADME; details: peptide 25 μM, DPP-IV 0.5 ng/μL, 37° C.
Sequence of DPP-IV (P27487 whole entry, species assumed): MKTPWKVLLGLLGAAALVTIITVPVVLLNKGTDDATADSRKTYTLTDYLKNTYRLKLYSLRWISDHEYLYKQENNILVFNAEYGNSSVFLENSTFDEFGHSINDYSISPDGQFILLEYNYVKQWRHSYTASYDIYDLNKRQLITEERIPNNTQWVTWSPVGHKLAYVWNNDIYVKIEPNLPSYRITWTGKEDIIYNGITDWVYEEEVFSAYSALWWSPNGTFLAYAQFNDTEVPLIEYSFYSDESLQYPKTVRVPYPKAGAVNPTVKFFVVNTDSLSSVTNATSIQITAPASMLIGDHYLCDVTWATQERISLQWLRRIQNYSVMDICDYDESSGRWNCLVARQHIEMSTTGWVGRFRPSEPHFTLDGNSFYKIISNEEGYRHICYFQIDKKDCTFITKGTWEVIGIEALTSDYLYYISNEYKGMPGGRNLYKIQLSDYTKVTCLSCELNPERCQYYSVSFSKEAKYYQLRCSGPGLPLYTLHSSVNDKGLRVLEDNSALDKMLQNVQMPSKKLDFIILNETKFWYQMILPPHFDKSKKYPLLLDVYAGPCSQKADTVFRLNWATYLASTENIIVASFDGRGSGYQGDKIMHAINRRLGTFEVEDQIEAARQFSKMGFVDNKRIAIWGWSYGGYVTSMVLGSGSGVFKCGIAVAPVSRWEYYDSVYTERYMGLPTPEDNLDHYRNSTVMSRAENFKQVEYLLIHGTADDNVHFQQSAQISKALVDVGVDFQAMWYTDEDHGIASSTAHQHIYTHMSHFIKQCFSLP
Experimental: (§1) Mix by centrifugation at 8000 rpm for 30 seconds.
(2) Arrange a certain volume of 0.005 μg/μL DPP-IV solution in another sterile EP.

NEP24.11 = NEP24.11 (Homo sapiens, UniProt P08473); experiment: Tolerance of GLP-1 and its analogues to NEP24.11 (RP-HPLC remaining peak area); assay type: in vitro ADME; details: peptide 30 μM, NEP24.11 1.0 ng/μL
Sequence of NEP24.11 (P08473 whole entry): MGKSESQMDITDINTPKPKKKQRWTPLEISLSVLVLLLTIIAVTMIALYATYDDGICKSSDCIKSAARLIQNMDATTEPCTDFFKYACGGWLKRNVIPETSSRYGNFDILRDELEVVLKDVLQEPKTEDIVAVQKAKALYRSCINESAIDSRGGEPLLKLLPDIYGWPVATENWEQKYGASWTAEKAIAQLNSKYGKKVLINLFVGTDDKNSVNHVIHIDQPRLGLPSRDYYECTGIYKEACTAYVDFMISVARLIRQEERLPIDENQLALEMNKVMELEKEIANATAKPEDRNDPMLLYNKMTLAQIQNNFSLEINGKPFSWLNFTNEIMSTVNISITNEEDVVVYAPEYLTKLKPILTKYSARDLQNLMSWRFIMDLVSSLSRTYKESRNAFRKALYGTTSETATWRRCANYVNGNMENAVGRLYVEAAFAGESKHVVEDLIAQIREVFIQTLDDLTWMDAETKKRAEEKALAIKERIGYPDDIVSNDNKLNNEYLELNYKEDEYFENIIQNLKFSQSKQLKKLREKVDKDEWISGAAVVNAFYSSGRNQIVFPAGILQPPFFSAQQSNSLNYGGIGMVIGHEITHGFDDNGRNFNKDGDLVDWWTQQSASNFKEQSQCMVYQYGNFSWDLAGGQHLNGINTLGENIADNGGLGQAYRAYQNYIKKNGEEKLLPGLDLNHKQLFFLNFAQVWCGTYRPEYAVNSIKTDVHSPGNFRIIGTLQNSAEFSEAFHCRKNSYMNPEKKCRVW
Experimental: as §1
Arrange a certain volume of 0.04 μg/μL NEP24.11 enzyme solution in another sterile EP.

[1] = Stability of GLP-1 and its analogues in human serum; details: 25% (v/v) human serum
trypsin = biological target: T1, trypsin (Bos taurus, UniProt P00760); experiment: in vitro; details: isolated enzyme trypsin, pH 7.8
T1 sequence (P00760 24-246): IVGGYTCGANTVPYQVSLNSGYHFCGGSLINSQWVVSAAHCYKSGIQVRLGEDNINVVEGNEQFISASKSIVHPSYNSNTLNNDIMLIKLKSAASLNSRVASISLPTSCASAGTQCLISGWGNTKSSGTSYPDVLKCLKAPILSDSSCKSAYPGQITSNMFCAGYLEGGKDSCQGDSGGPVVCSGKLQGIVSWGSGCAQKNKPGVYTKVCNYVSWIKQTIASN
Method in brief: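 Remaining RP-HPLC peak area tracks undigested peptide over time. Samples were quenched with 10% TFA at time points between 1.5 and 60 min during 37 °C digestion. Trypsin was added from a 0.05 μg/μL solution after 5 min of thermal equilibration.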

chymotrypsin = chymotrypsin (Bos taurus, UniProt P00766); experiment: in vitro; details: isolated enzyme chymotrypsin, pH 7.8, Remaining peak area (%)/chymotrypsin
Method in brief: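 RP-HPLC peak area tracked intact peptide after 37 °C digestion with chymotrypsin (0.05 μg/μL solution, 5 min preincubation). Samples were withdrawn at 1.5-60.0 min and stopped with 10% TFA.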

- Remaining peak area (%)/human serum ([1]; 0.0 h, peptide 0.03 mM, 37° C.): 100.0 ± 0.0%
- serum stability (in words) [1]: good serum stability
- remaining at 0.5 h, 0.03 mM ([1]; human, pH 7): 88.2%
- remaining at 2 h, 0.03 mM ([1]; human, pH 7): 92 ± 5.9%
- remaining at 4 h, 0.03 mM ([1]; human, pH 7): 78.7 ± 5.7%
- remaining at 8 h, 0.03 mM ([1]; human, pH 7): 58.2%
- remaining at 12 h, 0.03 mM ([1]; human, pH 7): 43.6 ± 0.3%
- remaining at 0.025 h, 60 μM (trypsin): 96.9 ± 3.1%
- remaining at 0.05 h, 60 μM (trypsin): 100 ± 2.5%
- remaining at 0.075 h, 60 μM (trypsin): 96.5 ± 2.1%
- remaining at 0.1 h, 60 μM (trypsin): 97.3 ± 3.6%
- remaining at 0.15 h, 60 μM (trypsin): 98 ± 3.1%
- remaining at 0.25 h, 60 μM (trypsin): 95.9 ± 3.2%
- remaining at 0.5 h, 60 μM (trypsin): 98.1 ± 4.4%
- remaining at 1 h, 60 μM (trypsin): 91 ± 7.6%
- remaining at 0.025 h, 60 μM (chymotrypsin): 67.1 ± 4.9%
- remaining at 0.05 h, 60 μM (chymotrypsin): 55.2 ± 0.6%
- remaining at 0.075 h, 60 μM (chymotrypsin): 47.1 ± 1.4%
- remaining at 0.1 h, 60 μM (chymotrypsin): 40.4 ± 1%
- remaining at 0.15 h, 60 μM (chymotrypsin): 31.3 ± 0.7%
SMILES: CC[C@H](C)[C@H](NC(=O)[C@H](Cc1ccccc1)NC(=O)[C@H](CCC(=O)O)NC(=O)[C@H](CCCCN)NC(=O)[C@H](C)NC(=O)[C@H](C)NC(=O)[C@H](CCC(N)=O)NC(=O)CNC(=O)[C@H](CCC(=O)O)NC(=O)[C@H](CC(C)C)NC(=O)[C@H](Cc1ccc(O)cc1)NC(=O)[C@H](CO)NC(=O)[C@H](CO)NC(=O)[C@@H](NC(=O)[C@H](CC(=O)O)NC(=O)[C@H](CO)NC(=O)[C@@H](NC(=O)[C@H](Cc1ccccc1)NC(=O)[C@@H](NC(=O)CNC(=O)[C@H](CCC(=O)O)NC(=O)[C@H](C)NC(=O)[C@H](Cc1c[nH]cn1)NC(=O)CNC(=O)CNC(=O)[C@@H](NC(=O)[C@@H]1CCCN1C(=O)[C@@H](NC(=O)CN)[C@@H](C)CC)[C@@H](C)CC)[C@@H](C)O)[C@@H](C)O)C(C)C)C(=O)N[C@@H](C)C(=O)N[C@@H](Cc1c[nH]c2ccccc12)C(=O)N[C@@H](CC(C)C)C(=O)N[C@H](C(=O)N[C@@H](CCCCN)C(=O)NCC(=O)N[C@@H](CCCNC(=N)N)C(=O)NCC(=O)NCC(=O)N[C@@H](CCCCN)C(=O)NCC(=O)N[C@@H](CCCNC(=N)N)C(=O)N[C@H]1CSSC[C@@H](C(=O)N[C@@H](Cc2ccccc2)C(=O)N2CCC[C@H]2C(=O)O)NC(=O)[C@H]([C@@H](C)CC)NC(=O)[C@@H]2CCCN2C(=O)[C@@H]2CCCN2C(=O)[C@H]([C@@H](C)CC)NC(=O)[C@H](CO)NC(=O)[C@H](CCCCN)NC(=O)[C@H]([C@@H](C)O)NC1=O)C(C)C [D-GLP-1-BT1]
- Remaining peak area (%)/DPP-IV (DPP-IV; 0.0 h): 100.0 ± 0.0%
- remaining at 0.5 h, 25 μM (DPP-IV; isolated DPP-IV enzyme in buffer, pH 8, 0.5 h): 88 ± 6.2%
- remaining at 2 h, 25 μM (DPP-IV; isolated DPP-IV enzyme in buffer, pH 8, 2.0 h): 95.9 ± 2.3%
- remaining at 4 h, 25 μM (DPP-IV; isolated DPP-IV enzyme in buffer, pH 8, 4.0 h): 96.9 ± 2%
- remaining at 8 h, 25 μM (DPP-IV; isolated DPP-IV enzyme in buffer, pH 8, 8.0 h): 92 ± 3.9%
- remaining at 12 h, 25 μM (DPP-IV; isolated DPP-IV enzyme in buffer, pH 8, 12.0 h): 79 ± 4.6%
- Remaining peak area (%)/NEP24.11 (NEP24.11; 0.0 h, 37° C.): 100.0 ± 0.0%
- remaining at 0.5 h, 30 μM (NEP24.11; isolated NEP24.11 enzyme in buffer, pH 7.4, 0.5 h, 37° C.): 80.3 ± 3.6%
- remaining at 2 h, 30 μM (NEP24.11; isolated NEP24.11 enzyme in buffer, pH 7.4, 2.0 h, 37° C.): 85.8 ± 2.7%
- remaining at 4 h, 30 μM (NEP24.11; isolated NEP24.11 enzyme in buffer, pH 7.4, 4.0 h, 37° C.): 80.1 ± 2.1%
- remaining at 8 h, 30 μM (NEP24.11; isolated NEP24.11 enzyme in buffer, pH 7.4, 8.0 h, 37° C., read-out: Remaining peak area (%)/NEP24.11): 78.2 ± 3.9%
- remaining at 8 h, 30 μM (NEP24.11; isolated NEP24.11 enzyme in buffer, pH 7.4, 8 hours, read-out: remaining amount after NEP24.11 hydrolysis): ~80%
